Where two headings read alike, the source gives them in different places.
Key:
[1] = biological target: central muscarinic binding site; settings: radio-labeled quinuclidinyl benzilate (antagonist), rat cerebral cortex
[2] = biological target: central muscarinic binding site; experiment: RCMD screening assay (inhibition of radio-labeled cis-methyldioxolane binding, rat cerebral cortex tissue)
Method: Similarly, in the RCMD screening assay, described more fully by T. W. Vickeroy, et al, J. Pharmacol. Exp. Ther., 229 (3): 747 (1984), rat cerebral cortex tissue was treated with radio-labeled cis-methyldioxolane,a known muscarinic binding site agonist. The concentrations of test compounds required to inhibit 50% of the binding of this muscarinic agonist were then determined.

[3] = tested on: laboratory rats given scopolamine; experiment: SIS, scopolamine induced swimming test; assay type: in vivo, rat; settings: for reversal of scopolamine-induced swimming hyperactivity: rats given scopolamine; for minimal effective dose: Rattus norvegicus, sc, Tables 3 and 4, Subcutaneous, five minute test period, read-out: Minimal Effective Dose for Reversal of Scopolamine-Induced Swimming Hyperactivity
Method: In a second screening assay, designated SIS, the scopolamine induced swimming test, the ability of representative compounds of the present invention to reverse the hyperactive swimming behavior of laboratory rats given scopolamine was assessed. In this test, untreated rats will generally swim between 20 to 30 meters during a five minute test period. […] This swimming hyperactivity can be reversed by administration of physostigmine or the cholinergic agonist, arecoline. The effect of scopolamine is centrally mediated; the ability of a test compound to reverse the hyperactive swimming behavior induced by scopolamine is thus a measure of the central cholinergic activity of the compound.

[4] = tested on: Aged humans and nonhuman primates with decreased cognition; settings: acetylcholinesterase inhibitor treatment; cited from earlier work
[5] = tested on: patients clinically diagnosed as having presenile primary degenerative dementia; settings: double blind study, Christie, et al (1981); cited from earlier work
[6] = tested on: age-related cognitive deficits; settings: H. P. Davis, et al (1983); cited from earlier work
[7] = Table 1, radio-labeled cis-methyldioxolane (agonist)
[8] = Table 2, radio-labeled cis-methyldioxolane (agonist)

For `CCON=CC1=CCCNC1` [Example 7, 1,2,5,6-Tetrahydro-3-pyridinecarboxaldehyde, O-ethyloxime], which IC50 ([1]; Table 1) is on record?
Its IC50 is 1000 nM.

What about the IC50 [2, 7] of the same compound?
Its IC50 is 42 nM.

For `CON=CC1=CCNCC1` [Example 15, 1,2,3,6-Tetrahydro-4-pyridinecarboxaldehyde, O-Methyloxime], which IC50 ([1]; Table 2) is on record?
Its IC50 is under 1 nM.

What about the IC50 [2, 8] of the same compound?
The IC50 was over 0.1 nM.

Which results are given for `CNC(=O)Oc1ccc2c(c1)[C@]1(C)CCN(C)[C@@H]1N2C` [physostigmine, reference compound]?
reversal of scopolamine-induced swimming hyperactivity [3]: reversed; memory in aged humans and nonhuman primates with decreased cognition [4]: improved memory

Which “reversal of scopolamine-induced swimming hyperactivity” value [3] does the source give for `COC(=O)C1=CCCN(C)C1` [arecoline, methyl ester of 1,2,5,6-tetrahydro-1-methyl-3-pyridinecarboxylic acid, reference compound] here?
Its value is “reversed”.

And the “improvement in a test of picture recognition” value [5]?
The value was “Significant improvement”.

Which “increase of swimming distance above baseline values” ([3]; scopolamine 0.1 mg/kg, rats) does the source give for `CN1[C@@H]2C[C@@H](OC(=O)[C@H](CO)c3ccccc3)C[C@H]1[C@@H]1O[C@@H]12` [scopolamine, reference compound] here?
The value was 75-125%.

Which results are given for `CON=CC1=CCCNC1` [Example 4, 1,2,5,6-Tetrahydro-3-pyridinecarboxaldehyde, O-Methyl oxime]?
IC50 ([1]; Table 1): 7100 nM; IC50 [2, 7]: 10 nM; minimal effective dose ([3]; scopolamine 0.1 mg/kg, rats): 3.2 mg/kg

Which results are given for `CON=CC1=CCN(C)CC1` [Example 14, 1,2,3,6-Tetrahydro-1-methyl-4-pyridinecarboxaldehyde, O-Methyloxime]?
IC50 ([1]; Table 2): > 1 nM; IC50 [2, 8]: > 0.1 nM; minimal effective dose ([3]; scopolamine 0.1 mg/kg, rats): 32 mg/kg

Which IC50 ([1]; Table 1) does the source give for `CON=CC1=CCCN(C)C1` [Example 3, 1,2,5,6-Tetrahydro-1-methyl-3-pyridinecarboxaldehyde O-Methyloxime] here?
Its IC50 is 1800 nM.

And the IC50 [2, 7]?
The IC50 was 2 nM.

What about the minimal effective dose ([3]; scopolamine 0.1 mg/kg, rats) of the same compound?
Its minimal effective dose is 3.2 mg/kg.

With `CCON=CC1=CCCN(C)C1` [Example 6, 1,2,5,6-Tetrahydro-1-methyl-3-pyridinecarboxaldehyde, O-Ethyloxime] as the compound, how does the IC50 ([1]; Table 1) read?
The IC50 was 10000 nM.

And the IC50 [2, 7]?
The IC50 was 28 nM.

Which IC50 ([1]; Table 1) does the source give for `CON=C(C)C1=CCCNC1` [Example 8, 1-(1,2,5,6-Tetrahydro-3-pyridinyl)ethanone, O-methyloxime] here?
The IC50 was 5800 nM.

What about the IC50 [2, 7] of the same compound?
The IC50 was 28 nM.

With `CCC(=NOC)C1=CCCNC1` [Example 2, 1-(1,2,5,6-Tetrahydro-3-pyridinyl)-1-propanone, O-Methyloxime] as the compound, how does the IC50 ([1]; Table 1) read?
Its IC50 is 9500 nM.

And the IC50 [2, 7]?
The IC50 was 290 nM.

Which “effect on age-related cognitive deficits” value [6] does the source give for `Nc1ccncc1N` [3,4-diaminopyridine] here?
Its value is “ameliorate age-related cognitive deficits”.

For `CON=C(C)C1=CCNCC1` [Example 13, 1-(1,2,3,6-Tetrahydro-4-pyridinyl)ethanone, O-Methyloxime], which minimal effective dose ([3]; scopolamine 0.1 mg/kg, rats) is on record?
Its minimal effective dose is 10 mg/kg.

From patent publication US4786648A, “O-substituted tetrahydropyridine oxime cholinergic agents” (Warner-Lambert Company, priority 1987, dated 1988)
